Laboratory results: patent US20080226719A1, “Combination of Rosiglitazone and Donepezil for Improvement of Cognitive Function” (priority 2005, published 2008)

Key:
Format in all cases: in vivo, human
[1] = system: Alzheimer's patients; experiment: ADAS-cog in patients with mild to moderate AD, 24 week placebo-controlled study (Example 2); details: for ADAS-cog Treatment Difference (95% confidence limits) Rosi − Placebo / ADAS-cog model adjusted change from baseline, LSMean (SE): ITT population, LOCF; for ADAS-cog Treatment Difference (95% confidence limits) Rosi − Placebo / ADAS-cog model adjusted change from baseline, LSMean (SE) / ADAS-cog Treatment Difference (90% confidence limits) Rosi − Placebo / ADAS-cog model-adjusted change from baseline, LSMean (SE): 24 weeks; for ADAS-cog Treatment Difference (90% confidence limits) Rosi − Placebo / ADAS-cog model-adjusted change from baseline, LSMean (SE): PGx ITT population
Protocol: (§1) Analysis for the full intent to treat (ITT) population was performed on 511 subjects who were randomly allocated into one of four specific treatment regimes. Genotyping analysis was performed on 63% (323/511) of the ITT population.
(§2) Patient population included Caucasian males and females between 50-85 years of age who had been diagnosed with mild to moderate AD, were not receiving any medications which could adversely prejudice the study (e.g. PPAR-gamma agonists or conventional AD medicaments) or had any other potentially prejudicial ailments (e.g. diabetes or major psychiatric disorders).
(§3) Patients received either placebo or one of three dosage levels of extended release rosiglitazone provided once daily (2 mg, 4 mg and 8 mg tablets as described in Example 1). Patients were examined using the cognitive Alzheimer's Disease Assessment Scale (ADAS-cog; for further information see Rosen W G et al. Am. J. Psychiatry. 1984 141:1356-1364) and the Clinician's Interview-Based Impression of Change with caregiver information (CIBIC+; for further information see Knopman D S et al. Neurology 1994 44: 2315-2321); and secondary assessments were performed using: the Disability Assessment for Dementia (DAD, for further information see Gelinas L et al. Am J Occup Ther 1999 53: 471-81) and the Neuropsychiatric Inventory test (NPI, for further information see Cummings et al (1994) Neurology 44, 2308-2314) at the start of the study (baseline) and during the course of the study (after 8, 16 and 24 weeks of treatment).
(§4) APOE genotype was determined using the TaqMan PCR-based method of McLeod et al 2001 infra.
(§5) All statistics reflect last observed assessment carried forward (LOCF) measurements.
It should be noted that in the case of ADAS-cog higher scores indicate reduced cognitive function.

[2] = system: Alzheimer's patients; experiment: CIBIC+ in patients with mild to moderate AD, 24 week placebo-controlled study (Example 2); details: 24 weeks; for CIBIC+ LSMean (SE) / CIBIC+ Treatment Difference (95% confidence limits) Rosi − Placebo: ITT population, LOCF
Protocol: as §1, §2, §3, §4, §5
Higher CIBIC+ scores indicate a greater level of decline with scores below 4 denoting clinical improvement and scores above 4 denoting clinical decline.

[3] = system: Alzheimer's patients; experiment: Disability Assessment for Dementia (DAD), Example 2 study; details: week 24
Protocol: as §3
Similar results were identified using the Disability Assessment for Dementia (DAD) test (Gelinas L et al. Am J Occup Ther 1999 53: 471-81). A prospectively defined test for interaction between APOE4 carriage status and DAD scores at week 24 was significant (P=0.006).

[4] = system: Alzheimer's patients; experiment: Neuropsychiatric Inventory (NPI), Example 2 study; details: week 24
Protocol: as §3
Similar results were identified using the Neuropsychiatric Inventory (NPI) test (Cummings et al (1994) Neurology 44, 2308-2314). A prospectively defined test for interaction between APOE4 carriage status and NPI scores at week 24 was significant ([…]).

[5] = Table 13, PGx ITT population, 0 APOE4 copies, 2 mg
[6] = Table 13, PGx ITT population, 0 APOE4 copies, 4 mg
[7] = Table 13, PGx ITT population, 0 APOE4 copies, 8 mg
[8] = Table 13, PGx ITT population, 1 APOE4 copy, 2 mg
[9] = Table 13, PGx ITT population, 1 APOE4 copy, 4 mg
[10] = Table 13, PGx ITT population, 1 APOE4 copy, 8 mg
[11] = Table 13, PGx ITT population, 2 APOE4 copies, 2 mg
[12] = Table 13, PGx ITT population, 2 APOE4 copies, 4 mg
[13] = Table 13, PGx ITT population, 2 APOE4 copies, 8 mg

CN(CCOc1ccc(CC2SC(=O)NC2=O)cc1)c1ccccn1 (stereo not drawn) [Rosi, 5-[4-[2-(N-methyl-N-(2-pyridyl)amino)ethoxy]benzyl]thiazolidine-2,4-dione]
ADAS-cog change from baseline, cognitive function (FIG. 2) ([1]; APOE4+ individuals, 2 mg, 4 mg or 8 mg, after 8 weeks): slight improvement | ADAS-cog change from baseline, cognitive function (FIG. 2) ([1]; APOE4+ individuals, 2 mg, after 16 weeks): a greater decline than the placebo | ADAS-cog change from baseline, cognitive function (FIG. 2) ([1]; APOE4+ individuals, 4 mg and 8 mg, after 16 weeks, versus placebo): the same or better clinical status | ADAS-cog change from baseline, cognitive function (FIG. 2) ([1]; APOE4+ individuals, all three treatment arms, after 24 weeks): finish with a clinical decline | ADAS-cog change from baseline (FIG. 3) ([1]; APOE4 heterozygotes, higher doses (4, 8 mg), course of the study): remained close to the baseline | ADAS-cog change from baseline (FIG. 3) ([1]; APOE4 homozygotes, all treated): experienced a clinical decline | ADAS-cog change from baseline, cognitive function (FIG. 2) ([1]; APOE4− individuals, 2 mg, 4 mg or 8 mg, all time points (8, 16 and 24 weeks)): marked improvement | ADAS-cog Treatment Difference (95% confidence limits) Rosi − Placebo ([1]; 2 mg): 0.25 (−1.19, 1.68) | ADAS-cog model adjusted change from baseline, LSMean (SE) ([1]; 2 mg once daily extended release): −0.2 (0.54) | ADAS-cog Treatment Difference (95% confidence limits) Rosi − Placebo ([1]; 4 mg): −0.46 (−1.90, 0.97) | ADAS-cog model adjusted change from baseline, LSMean (SE) ([1]; 4 mg once daily extended release): −0.9 (0.54) | ADAS-cog Treatment Difference (95% confidence limits) Rosi − Placebo ([1]; 8 mg): −0.27 (−1.70, 1.16) | ADAS-cog model adjusted change from baseline, LSMean (SE) ([1]; 8 mg once daily extended release): −0.7 (0.53) | ADAS-cog Treatment Difference (90% confidence limits) Rosi − Placebo ([1]; 0 APOE4 copies, 2 mg): −2.39 (−4.43, −0.36) | ADAS-cog model-adjusted change from baseline, LSMean (SE) ([1]; 0 APOE4 copies, 2 mg): −1.38 (0.90) | ADAS-cog Treatment Difference (90% confidence limits) Rosi − Placebo ([1]; 0 APOE4 copies, 4 mg): −2.26 (−4.32, −0.20) | ADAS-cog model-adjusted change from baseline, LSMean (SE) ([1]; 0 APOE4 copies, 4 mg): −1.25 (0.90) | ADAS-cog Treatment Difference (90% confidence limits) Rosi − Placebo ([1]; 0 APOE4 copies, 8 mg): −2.86 (−4.98, −0.74) | ADAS-cog model-adjusted change from baseline, LSMean (SE) ([1]; 0 APOE4 copies, 8 mg): −1.85 (0.94) | ADAS-cog Treatment Difference (90% confidence limits) Rosi − Placebo ([1]; 0 APOE4 copies, 8 mg, listed as rosiglitazone): −2.86 | ADAS-cog Treatment Difference (90% confidence limits) Rosi − Placebo ([1]; 1 APOE4 copy, 2 mg): 2.59 (0.10, 5.08) | ADAS-cog model-adjusted change from baseline, LSMean (SE) ([1]; 1 APOE4 copy, 2 mg): 2.02 (1.10) | ADAS-cog Treatment Difference (90% confidence limits) Rosi − Placebo ([1]; 1 APOE4 copy, 4 mg): 0.36 (−2.18, 2.90) | ADAS-cog model-adjusted change from baseline, LSMean (SE) ([1]; 1 APOE4 copy, 4 mg): −0.21 (1.15) | ADAS-cog Treatment Difference (90% confidence limits) Rosi − Placebo ([1]; 1 APOE4 copy, 8 mg): 0.23 (−2.42, 2.87) | ADAS-cog model-adjusted change from baseline, LSMean (SE) ([1]; 1 APOE4 copy, 8 mg): −0.34 (1.25) | ADAS-cog Treatment Difference (90% confidence limits) Rosi − Placebo ([1]; 2 APOE4 copies, 2 mg): 10.26 (3.64, 16.87) | ADAS-cog model-adjusted change from baseline, LSMean (SE) ([1]; 2 APOE4 copies, 2 mg): 5.67 (2.98) | ADAS-cog Treatment Difference (90% confidence limits) Rosi − Placebo ([1]; 2 APOE4 copies, 4 mg): 7.75 (1.79, 13.71) | ADAS-cog model-adjusted change from baseline, LSMean (SE) ([1]; 2 APOE4 copies, 4 mg): 3.16 (2.44) | ADAS-cog Treatment Difference (90% confidence limits) Rosi − Placebo ([1]; 2 APOE4 copies, 8 mg): 6.50 (1.28, 11.71) | ADAS-cog model-adjusted change from baseline, LSMean (SE) ([1]; 2 APOE4 copies, 8 mg): 1.91 (1.73) | CIBIC+ LSMean (SE) ([2]; 2 mg): 3.8 (0.10) | CIBIC+ Treatment Difference (95% confidence limits) Rosi − Placebo ([2]; 2 mg): −0.16 (−0.44, 0.11) | CIBIC+ LSMean (SE) ([2]; 4 mg): 3.8 (0.10) | CIBIC+ Treatment Difference (95% confidence limits) Rosi − Placebo ([2]; 4 mg): −0.16 (−0.43, 0.11) | CIBIC+ LSMean (SE) ([2]; 8 mg): 3.8 (0.10) | CIBIC+ Treatment Difference (95% confidence limits) Rosi − Placebo ([2]; 8 mg): −0.22 (−0.49, 0.05) | CIBIC+ Treatment Difference (90% confidence limits) Rosi − Placebo [2, 5]: −0.49 (−0.89, −0.08) | model adjusted CIBIC+ LSMean (SE) [2, 5]: 3.47 (0.18) | CIBIC+ Treatment Difference (90% confidence limits) Rosi − Placebo [2, 6]: −0.19 (−0.60, 0.22) | model adjusted CIBIC+ LSMean (SE) [2, 6]: 3.76 (0.18) | CIBIC+ Treatment Difference (90% confidence limits) Rosi − Placebo [2, 7]: −0.19 (−0.61, 0.22) | model adjusted CIBIC+ LSMean (SE) [2, 7]: 3.76 (0.18) | CIBIC+ Treatment Difference (90% confidence limits) Rosi − Placebo [2, 8]: 0.59 (0.08, 1.11) | model adjusted CIBIC+ LSMean (SE) [2, 8]: 4.47 (0.23) | CIBIC+ Treatment Difference (90% confidence limits) Rosi − Placebo [2, 9]: 0.23 (−0.28, 0.74) | model adjusted CIBIC+ LSMean (SE) [2, 9]: 4.11 (0.23) | CIBIC+ Treatment Difference (90% confidence limits) Rosi − Placebo [2, 10]: −0.20 (−0.73, 0.34) | model adjusted CIBIC+ LSMean (SE) [2, 10]: 3.68 (0.25) | CIBIC+ Treatment Difference (90% confidence limits) Rosi − Placebo [2, 11]: −0.92 (−2.20, 0.37) | model adjusted CIBIC+ LSMean (SE) [2, 11]: 3.42 (0.58) | CIBIC+ Treatment Difference (90% confidence limits) Rosi − Placebo [2, 12]: −0.39 (−1.55, 0.77) | model adjusted CIBIC+ LSMean (SE) [2, 12]: 3.95 (0.47) | CIBIC+ Treatment Difference (90% confidence limits) Rosi − Placebo [2, 13]: −0.07 (−1.08, 0.95) | model adjusted CIBIC+ LSMean (SE) [2, 13]: 4.27 (0.34) | model adjusted CIBIC+ LSMean (SE) ([2]; Table 13A updated analysis with additional subjects, 0 APOE4 copies, 2 mg): 3.51 (0.17) | model adjusted CIBIC+ LSMean (SE) ([2]; Table 13A updated analysis with additional subjects, 0 APOE4 copies, 4 mg): 3.75 (0.17) | model adjusted CIBIC+ LSMean (SE) ([2]; Table 13A updated analysis with additional subjects, 0 APOE4 copies, 8 mg): 3.75 (0.18) | model adjusted CIBIC+ LSMean (SE) ([2]; Table 13A updated analysis with additional subjects, 1 APOE4 copy, 2 mg): 4.32 (0.21) | model adjusted CIBIC+ LSMean (SE) ([2]; Table 13A updated analysis with additional subjects, 1 APOE4 copy, 4 mg): 3.97 (0.22) | model adjusted CIBIC+ LSMean (SE) ([2]; Table 13A updated analysis with additional subjects, 1 APOE4 copy, 8 mg): 3.70 (0.24) | model adjusted CIBIC+ LSMean (SE) ([2]; Table 13A updated analysis with additional subjects, 2 APOE4 copies, 2 mg): 3.46 (0.57) | model adjusted CIBIC+ LSMean (SE) ([2]; Table 13A updated analysis with additional subjects, 2 APOE4 copies, 4 mg): 3.93 (0.47) | model adjusted CIBIC+ LSMean (SE) ([2]; Table 13A updated analysis with additional subjects, 2 APOE4 copies, 8 mg): 4.29 (0.33) | CIBIC+ Treatment Difference (90% confidence limits) Rosi − Placebo ([2]; Table 13A updated analysis, 0 APOE4 copies, 2 mg): −0.46 (−0.85, −0.07) | CIBIC+ Treatment Difference (90% confidence limits) Rosi − Placebo ([2]; Table 13A updated analysis, 0 APOE4 copies, 4 mg): −0.22 (−0.62, 0.18) | CIBIC+ Treatment Difference (90% confidence limits) Rosi − Placebo ([2]; Table 13A updated analysis, 0 APOE4 copies, 8 mg): −0.22 (−0.62, 0.19) | CIBIC+ Treatment Difference (90% confidence limits) Rosi − Placebo ([2]; Table 13A updated analysis, 1 APOE4 copy, 2 mg): 0.39 (−0.09, 0.87) | CIBIC+ Treatment Difference (90% confidence limits) Rosi − Placebo ([2]; Table 13A updated analysis, 1 APOE4 copy, 4 mg): 0.04 (−0.44, 0.53) | CIBIC+ Treatment Difference (90% confidence limits) Rosi − Placebo ([2]; Table 13A updated analysis, 1 APOE4 copy, 8 mg): −0.22 (−0.74, 0.29) | CIBIC+ Treatment Difference (90% confidence limits) Rosi − Placebo ([2]; Table 13A updated analysis, 2 APOE4 copies, 2 mg): −0.91 (−2.19, 0.36) | CIBIC+ Treatment Difference (90% confidence limits) Rosi − Placebo ([2]; Table 13A updated analysis, 2 APOE4 copies, 4 mg): −0.45 (−1.59, 0.70) | CIBIC+ Treatment Difference (90% confidence limits) Rosi − Placebo ([2]; Table 13A updated analysis, 2 APOE4 copies, 8 mg): −0.09 (−1.09, 0.92) | DAD scores, pattern of results ([3]; APOE4+ subjects): demonstrated no improvement | DAD scores, pattern of results ([3]; APOE4− subjects): demonstrated improvement on DAD | NPI scores, pattern of results ([4]; APOE4+ subjects): demonstrated no improvement | NPI scores, pattern of results ([4]; APOE4− subjects): demonstrated improvement on NPI
